These are literature values, as cited in patent US20110160274A1 (PANACEA BIOTEC LIMITED, priority 2008, published 2011).

The conditions of the data set: after oral administration of fenofibrate.

For the molecule `CC(C)(Oc1ccc(C(=O)c2ccc(Cl)cc2)cc1)C(=O)O` [fenofibric acid], the “plasma elimination half life” value is “about 20 hours”.
